Experimental data: patent US20250206754A1, “PAN-CHEMOKINE ANTAGONISTS FOR USE IN TREATING CANCER AND IMMUNE DISORDERS” ("Micar Innovation" LTD., priority 2022, published 2025)
pIC50: −log10 of the molar value. Read-outs that look alike come from different tables or passages of the source.

Legend:
CCR7 = target: T1, CCR7 (Homo sapiens, UniProt P32248); assay: GTPγS assay, CCR7; format: biochemical
T1 construct: expressed in transfected cells
T1 sequence (P32248 25-378): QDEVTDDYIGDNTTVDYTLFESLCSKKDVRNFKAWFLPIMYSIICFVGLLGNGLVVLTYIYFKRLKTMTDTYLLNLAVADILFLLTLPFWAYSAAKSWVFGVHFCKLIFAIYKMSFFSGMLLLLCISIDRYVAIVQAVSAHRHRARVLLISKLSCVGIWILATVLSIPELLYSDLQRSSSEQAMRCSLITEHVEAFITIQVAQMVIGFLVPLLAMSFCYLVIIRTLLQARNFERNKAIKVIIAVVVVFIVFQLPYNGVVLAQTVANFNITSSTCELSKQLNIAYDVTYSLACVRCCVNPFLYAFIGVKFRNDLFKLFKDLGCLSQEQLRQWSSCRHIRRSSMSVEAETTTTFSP
Experimental: (§1) The Kb values are also retrieved. […] Finally, to make it more clear the second messenger output for Hit1 and confirm the nature of β-arrestin bias GTPγS and ERK assays were also performed. […] Considering that the ERK is directly related to β-arrestin path and binds directly to the arrestin it was concluded that this compound is β-arrestin biased (Table 1 and FIGS. 3A and 3B). Finally, several other potential hits were identified but the activities were in a range of 25-35% at 100 μM concentration and they were discarded in this disclosure.
Current diversity data provide also several additional experimental evidences which are against colloid aggregation activity dependence: • Almost identical steep dose-response curves have been observed for the natural CCL19 and CCL21 agonists. Thus, it seems that this is not unique to Hit 1 case. • Hill coefficient of 1.5 in the ERK experiments and no steep slope (FIG. 3A). Moreover, the ERK dose-response curve looks like a typical single antagonist ligand. • At the same conditions as in the ERK assay the compound was in particular not active in the GTPγS assay up to 100 μM (FIG. 3B). […]

β-lactamase = β-lactamase enzymatic activity counterscreen (colloid aggregation); format: biochemical; settings: 50 μM
Experimental: To examine the colloid aggregation possibility a β-lactamase enzymatic activity counterscreen assay was performed, which is the commonly adopted tool for detection of such properties of the compounds.

CCR9 = target: T2, CCR9 (Homo sapiens, UniProt P51686); assay: Ca^2+ mobilization assay, CCR9; format: cell-based
T2 sequence (P51686 1-369): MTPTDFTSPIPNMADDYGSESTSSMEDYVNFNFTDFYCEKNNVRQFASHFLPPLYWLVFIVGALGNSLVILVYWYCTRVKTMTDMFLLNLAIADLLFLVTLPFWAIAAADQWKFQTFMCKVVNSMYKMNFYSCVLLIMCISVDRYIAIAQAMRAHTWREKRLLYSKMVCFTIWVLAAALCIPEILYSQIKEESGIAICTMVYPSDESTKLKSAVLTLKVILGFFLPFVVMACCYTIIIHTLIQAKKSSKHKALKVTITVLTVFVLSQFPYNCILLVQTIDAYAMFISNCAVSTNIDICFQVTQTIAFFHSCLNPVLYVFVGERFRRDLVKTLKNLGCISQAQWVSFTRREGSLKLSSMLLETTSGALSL
Experimental: as §1

[1] = Maximal tolerated dose (MTD) study in BALB/c mice; format: in vivo; settings: daily (QD) oral doses of 30 mg/kg and 150 mg/kg
Experimental: Design of the in vivo study: A total of 44 female BALB/c mice (12 mice for maximal tolerance dose (MTD) study; 32 mice for efficacy study) were used in the 4T-1-Luc study. The animals were specific pathogen free and approximately 4-5 weeks old at the initiation of the study.
MTD studies: Initially, 10 BALB/c mice were used for the maximal tolerated dose (MTD) response study determination. The mice were randomized based on body weight and were treated with Hit 1 compound with daily (QD) oral doses of 30 mg/kg and 150 mg/kg. Body weight was measured daily.

CCR3 = target: T3, CCR3 (Homo sapiens, UniProt P51677); assay: β-arrestin selectivity assay, CCR3; format: cell-based
T3 sequence (P51677 1-355): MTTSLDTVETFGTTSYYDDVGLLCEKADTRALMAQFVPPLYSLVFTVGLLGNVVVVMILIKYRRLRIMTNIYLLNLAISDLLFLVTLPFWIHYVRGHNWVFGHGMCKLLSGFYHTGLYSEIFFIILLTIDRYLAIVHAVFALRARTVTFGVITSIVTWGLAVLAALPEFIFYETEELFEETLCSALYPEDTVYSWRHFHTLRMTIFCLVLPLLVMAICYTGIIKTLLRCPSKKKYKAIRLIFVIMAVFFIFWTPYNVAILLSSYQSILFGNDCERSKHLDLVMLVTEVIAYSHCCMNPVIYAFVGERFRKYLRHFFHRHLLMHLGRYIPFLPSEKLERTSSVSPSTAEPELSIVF

MB231cell line = assay: Migration assay by MB231 cell line with CCL19/CCL21; settings: 100 nM of CCL19/CCL21
Experimental: For this purpose a model for the inhibition of CCL2 release from IL-4, IL-13, IL-22 and IFNγ-stimulated primary human keratinocytes (Eczematous inflammation) was used and also an assay for the inhibition of IL-8 release from IL-17A and TNFα (Psoriatic inflammation). […] Finally, migration assay by MB231cell line was performed.

4T-1-luc cells = format: in vivo; settings: Day 15
CCR5 = CCR5 (Homo sapiens, UniProt P51681); assay: β-arrestin selectivity assay, CCR5; format: cell-based
Sequence of CCR5 (P51681 whole entry): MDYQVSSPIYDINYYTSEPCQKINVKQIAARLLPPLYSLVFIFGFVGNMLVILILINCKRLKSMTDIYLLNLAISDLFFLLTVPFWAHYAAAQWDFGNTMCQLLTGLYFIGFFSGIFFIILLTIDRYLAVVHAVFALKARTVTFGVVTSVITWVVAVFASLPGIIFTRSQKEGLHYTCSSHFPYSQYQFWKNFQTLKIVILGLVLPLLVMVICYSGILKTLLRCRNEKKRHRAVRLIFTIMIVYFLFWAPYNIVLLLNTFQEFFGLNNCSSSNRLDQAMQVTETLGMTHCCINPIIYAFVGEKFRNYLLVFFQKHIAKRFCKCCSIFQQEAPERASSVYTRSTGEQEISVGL

## NC(=O)c1ccccc1Oc1ncnc2sc(-c3ccccc3)cc12 [Hit 1, 2-({6-phenylthieno[2,3-d]pyrimidin-4-yl}oxy)benzamide]
CCR7; GTPγS assay, highest concentration of 100 μM
  antagonist activity: 16%
CCR7; up to 100 μM
  activity in GTPγS assay: not active
β-lactamase
  activity on β-lactamase: −18%
CCR9
  Kb: 5.2 µM
CCR9; Ca^2+ assay
  Hill-Slope: 0.8
CCR9; Ca^2+ mobilization assay
  pIC50: 4.24
[1]
  behavior and side effects: did not show abnormal behavior
  body weight loss: A significant (>20%) body lost was not observed
CCR3
  Hill coefficient: 2.6
  pIC50: 5.36
MB231cell line
  reduction of CCL19/CCL21-induced migration: 10 folds
MB231cell line; control 100%, CCL19/CCL21 200%
  migratory cells: 20%
4T-1-luc cells; G2 5 mg/kg p.o. QD
  Animal bioluminescence imaging intensity, Mean: 1.69E+08 10^8 p/s
4T-1-luc cells; G3 30 mg/kg p.o. QD
  Animal bioluminescence imaging intensity, Mean: 1.09E+08 10^8 p/s
CCR5
  Hill coefficient: 1.9
  pIC50: 5.72
